Where two headings read alike, the source gives them in different places.
Key:
radish = test: Plant activating effect, foliar application, radish; assay type: in vivo; conditions: 21 days, 12 seeds
Description: After 600 g of upland soil was packed in a porcelain pot of 12 cm in inner diameter, 12 grains of radish seeds were sowed therein, covered with 5 mm in depth of the soil and allowed to grow in a green house. Foliar application treatment was carried out once a day using the following application liquids. Conditions of the leaves 21 days thereafter were observed.

[1] = Degradation test by sterilization; assay type: physicochemical; conditions: 50 mg heat sterilized, 121° C., 20 minutes, 1.5 kgf/cm^2
Description: Firstly, 50 mg of 5-aminolevulinic acid p-toluenesulfonate or 5-aminolevulinic acid hydrochloride was heat sterilized (121° C., 20 minutes, 1.5 kgf/cm^2). After confirming that there is no change in weight before and after the sterilization, degree of degradation of 5-aminolevulinic acid before and after the sterilization was verified by the method described in a reference (Clin. Chem., 36/8, 1494 (1990)).

[2] = system: Salmonella typhimurium TA 100, TA 98, TA 1535 and TA 1537 and Escherichia coli WP2 uvrA; test: Mutagenicity test (back mutation test) using microorganisms, all strains; assay type: cell-based
Description: A test was carried out in accordance with the “Standard of Mutagenicity Tests Using Microorganisms” (Ministry of Labor Notification No. 77, 1988) (partial revision by Ministry of Labor Notification No. 67, 1997) and “Regarding the Tests Concerning Novel Chemical Substances and the like” (dated Nov. 21, 2003: Yaku-Shoku-Hatsu No. 1121002, 2003.11.13 Sei-Kyoku, No. 2, Kan-Ho-Ki-Hatsu No. 031121002). […] In the measurement, an inner area of about 80 mm in diameter of a plate of 86 mm in diameter (84 mm in inner diameter) was measured using an automatic colony analyzer (CA-11: manufactured by System Science), and calculated by carrying out area correction and counting loss correction using a personal computer. However, since reliability of the automatic colony analyzer is reduced when the number of colonies is 1,500 or more, 5 points in the plate were manually measured under the stereoscopic microscope to carry out area correction of the average value. […]

[3] = system: female rats (Sprague-Dawley CD species); conditions: for Dead animals: 2000 mg/kg oral, per animal
Description: This test was carried out in accordance with the OECD Guideline No. 423 “Acute Oral Toxicity-Acute Toxicity Grading Method” (adopted on Dec. 17, 2001). Fasted female rats (Sprague-Dawley CD species) of 3 animals per group were treated with 5-aminolevulinic acid phosphate at a dose of 300 mg per kg body weight. In addition, other fasted female rats of two or more groups were treated at a dose of 2000 mg per kg body weight. They were observed after the administration continuously for 2 weeks.

[4] = Chloride ion concentration of aqueous solutions by ion chromatography; assay type: physicochemical; conditions: detection limit 0.1 ppm; each sample
Description: When chloride ion concentration in the aqueous 5-aminolevulinic acid phosphate solutions used in the above-described examples was measured by ion chromatography under the following conditions, it was equal to or lower than the detection limit (0.1 ppm) in each sample.
(§1) The measuring conditions are as follows; A: separation column (IonPac AS12A manufactured by Japan Dionex), B: guard column (IonPac AG12A manufactured by Japan Dionex), C: eluting solution (an aqueous solution containing Na2CO3: 3.0 mmol/l and NaHCO3: 0.5 mmol/l), D: flow rate (1.5 ml/min), E: suppressor (ASRS (recycle mode, current value 50 mA)), F: amount of introduced sample (25 μl), G: temperature of constant temperature oven (35° C.) and H: detector (electric conductivity detector).
When chloride ion concentration in the aqueous 5-aminolevulinic acid nitrate solutions used in the above-described examples was measured by ion chromatography under the following conditions, it was equal to or lower than the detection limit (0.1 ppm) in each sample.
as §1, with “follows:” for “follows;”, “consisting of” for “containing”
When chloride ion concentration in the aqueous 5-aminolevulinic acid p-toluenesulfonate solutions used in the above-described examples was measured by ion chromatography under the following conditions, it was equal to or lower than the detection limit (0.1 ppm) in each sample.

## Cl.NCC(=O)CCC(=O)O [5-aminolevulinic acid hydrochloride, reference compound]
radish; 1 ppm in tap water
  plants judged 0: Abnormality was not found on the leaf surface: 4 plants
  plants judged 1: A region discolored to yellow was found on the leaf surface: 6 plants
  plants judged 2: A necrotic region was found on the leaf surface: 2 plants
radish; 10 ppm in tap water
  plants judged 0: Abnormality was not found on the leaf surface: 4 plants
  plants judged 1: A region discolored to yellow was found on the leaf surface: 4 plants
  plants judged 2: A necrotic region was found on the leaf surface: 4 plants
radish; 100 ppm in tap water
  plants judged 0: Abnormality was not found on the leaf surface: 3 plants
  plants judged 1: A region discolored to yellow was found on the leaf surface: 5 plants
  plants judged 2: A necrotic region was found on the leaf surface: 4 plants
[1]
  Degradation degree (%): 6.6%

## NCC(=O)CCC(=O)O.O=P(O)(O)O [5-aminolevulinic acid phosphate, 5-aminolevulinic Acid Phosphate]
[2]
  mutation inducing ability: does not have the mutation inducing ability
[3]; 0.5 hour after administration
  Dead animals: 0
[3]; 1 hour after administration
  Dead animals: 0
[3]; 2 hour after administration
  Dead animals: 0
[3]; 4 hour after administration
  Dead animals: 0
[3]; day 1 after administration
  Dead animals: 0
[3]; day 2 after administration
  Dead animals: 0
[3]; day 3 after administration
  Dead animals: 0
[3]; day 4 after administration
  Dead animals: 0
[3]; day 5 after administration
  Dead animals: 0
[3]; day 6 after administration
  Dead animals: 0
[3]; day 7 after administration
  Dead animals: 0
[3]; day 8 after administration
  Dead animals: 0
[3]; day 9 after administration
  Dead animals: 0
[3]; day 10 after administration
  Dead animals: 0
[3]; day 11 after administration
  Dead animals: 0
[3]; day 12 after administration
  Dead animals: 0
[3]; day 13 after administration
  Dead animals: 0
[3]; day 14 after administration
  Dead animals: 0
[3]; 300 and 2000 mg per kg body weight, 2 weeks
  death: death was not found in all of the rats
[3]; fasted female rats, observed 2 weeks
  acute oral 50% lethal dose (LD50): > 2,500 mg per kg body weight
[4]
  chloride ion concentration in the aqueous solutions used in the examples: ≤ 0.1 ppm
